US12378224B2 (Dong-A Socio Holdings Co., Ltd., priority 2016, dated 2025)
pIC50: −log10 of the molar value.

The molecules below were run against human c-MER catalytic domain (Homo sapiens (Human), UniProt Q12866) (assay: TR-FRET Kinase Activity Biochemical Assay (LanthaScreen)). Settings: 10 uM ATP, 1 hour, kinase not given.
Summary of the method: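 Recombinant human c-MER catalytic domain phosphorylated fluorescein-labeled poly-GT substrate. The reaction was stopped with 10 mM EDTA, then 2 nM Tb-labeled anti-phosphotyrosine antibody was added for 30 min. Kinase activity was taken from the 495/520 nm TR-FRET emission ratio after 340 nm excitation.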

human c-MER catalytic domain, sequence (Q12866 587-858): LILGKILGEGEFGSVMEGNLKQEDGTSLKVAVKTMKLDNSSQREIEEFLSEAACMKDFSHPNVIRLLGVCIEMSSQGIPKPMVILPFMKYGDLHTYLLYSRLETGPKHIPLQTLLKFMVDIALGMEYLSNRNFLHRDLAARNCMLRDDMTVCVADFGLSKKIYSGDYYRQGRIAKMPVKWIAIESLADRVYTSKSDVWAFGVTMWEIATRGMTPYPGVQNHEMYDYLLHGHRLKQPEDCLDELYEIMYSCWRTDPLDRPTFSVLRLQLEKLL

| SMILES | pIC50 |
| --- | --- |
| Cc1ccc(-c2ccc(C(=O)N3CC[C@@H](NC(=O)c4cc(-c5cnn(C)c5)cnc4N)C3)cc2C)s1 [Example 536, (R)-2-amino-5-(1-methyl-1H-pyrazol-4-yl)-N-(1-(3-methyl-4-(5-methylthiophen-2-yl)benzoyl)pyrrolidin-3-yl)nicotinamide] | 7.00 to 8.00 |
| Cn1cc(-c2cnc(N)c(C(=O)N[C@@H]3CCN(C(=O)c4ccc(-c5ccc(C#N)s5)cc4)C3)c2)cn1 [Example 537, (R)-2-amino-N-(1-(4-(5-cyanothiophen-2-yl)benzoyl)pyrrolidin-3-yl)-5-(1-methyl-1H-pyrazol-4-yl)nicotinamide] | 7.00 to 8.00 |
| Cc1noc(C)c1-c1ccc(C(=O)N2CC[C@@H](NC(=O)c3cc(-c4cnn(C)c4)cnc3N)C2)cc1 [Example 539, (R)-2-amino-N-(1-(4-(3,5-dimethylisoxazol-4-yl)benzoyl)pyrrolidin-3-yl)-5-(1-methyl-1H-pyrazol-4-yl)nicotinamide] | 6.00 to 7.00 |
| Cn1cc(-c2cnc(N)c(C(=O)N[C@@H]3CCN(C(=O)c4ccc(-c5ccc(O[C@H]6CCNC6)cc5)cc4)C3)c2)cn1 [Example 541, 2-amino-5-(1-methyl-1H-pyrazol-4-yl)-N—((R)-1-(4′-(((S)-pyrrolidin-3-yl)oxy)-[1,1′-biphenyl]-4-carbonyl)pyrrolidin-3-yl)nicotinamide] | 7.00 to 8.00 |
| CC(O)c1ccc(-c2ccc(C(=O)N3CC[C@@H](NC(=O)c4cc(-c5cnn(C)c5)cnc4N)C3)cc2)s1 (stereo partly drawn) [Example 542, 2-amino-N-((3R)-1-(4-(5-(1-hydroxyethyl)thiophen-2-yl)benzoyl)pyrrolidin-3-yl)-5-(1-methyl-1H-pyrazol-4-yl)nicotinamide] | 6.00 to 7.00 |
| CN1CCC(NCc2ccc(-c3ccc(C(=O)N4CC[C@@H](NC(=O)c5cc(-c6cnn(C)c6)cnc5N)C4)cc3)cc2)CC1 [Example 549, (R)-2-amino-5-(1-methyl-1H-pyrazol-4-yl)-N-(1-(4′-(((1-methylpiperidin-4-yl)amino)methyl)-[1,1′-biphenyl]-4-carbonyl)pyrrolidin-3-yl)nicotinamide] | 6.00 to 7.00 |
| CN(C)CCCOc1ccc(-c2ccc(C(=O)N3CC[C@@H](NC(=O)c4cc(-c5cnn(C)c5)cnc4N)C3)cc2)cc1 [Example 551, (R)-2-amino-N-(1-(4′-(3-(dimethylamino)propoxy)-[1,1′-biphenyl]-4-carbonyl)pyrrolidin-3-yl)-5-(1-methyl-1H-pyrazol-4-yl)nicotinamide] | 7.00 to 8.00 |
| COc1ccc(-c2cnc(N)c(C(=O)N[C@@H]3CCN(C(=O)c4ccc(-c5ccccc5)cc4)C3)c2)cc1 [Example 555, (R)—N-(1-([1,1′-biphenyl]-4-carbonyl)pyrrolidin-3-yl)-2-amino-5-(4-methoxyphenyl)nicotinamide] | 6.00 to 7.00 |
| Nc1ncc(-c2ccc(N3CCOCC3)cc2)cc1C(=O)N[C@@H]1CCN(C(=O)c2ccc(-c3ccccc3)cc2)C1 [Example 557, (R)—N-(1-([1,1′-biphenyl]-4-carbonyl)pyrrolidin-3-yl)-2-amino-5-(4-morpholinophenyl)nicotinamide] | 7.00 to 8.00 |
| CC(C)(C)OC(=O)N1CCC(n2cc(-c3cnc(N)c(C(=O)N[C@@H]4CCN(C(=O)c5ccc(-c6ccccc6)cc5)C4)c3)cn2)CC1 [Example 561, tert-butyl (R)-4-(4-(5-((1-([1,1′-biphenyl]-4-carbonyl)pyrrolidin-3-yl)carbamoyl)-6-aminopyridin-3-yl)-1H-pyrazol-1-yl)piperidine-1-carboxylate] | 7.00 to 8.00 |
| CC(C)(c1ccc(-c2cnc(N)c(C(=O)N[C@@H]3CCN(C(=O)c4ccc(-c5ccccc5)cc4)C3)c2)cc1)N1CCNCC1 [Example 564, (R)—N-(1-([1,1′-biphenyl]-4-carbonyl)pyrrolidin-3-yl)-2-amino-5-(4-(2-(piperazin-1-yl)propan-2-yl)phenyl)nicotinamide] | > 8.00 |
| Nc1ncc(-c2ccc(CN3CCOCC3)cc2)cc1C(=O)N[C@@H]1CCN(C(=O)c2ccc(-c3ccccc3)cc2)C1 [Example 569, (R)—N-(1-([1,1′-biphenyl]-4-carbonyl)pyrrolidin-3-yl)-2-amino-5-(4-(morpholinomethyl)phenyl)nicotinamide] | 7.00 to 8.00 |
| Nc1ncc(-c2ccc(N3CCOCC3)cc2)cc1C(=O)N[C@@H]1CCN(C(=O)c2ccc(-c3ccccc3Cl)cc2)C1 [Example 571, (R)-2-amino-N-(1-(2′-chloro-[1,1′-biphenyl]-4-carbonyl)pyrrolidin-3-yl)-5-(4-morpholinophenyl)nicotinamide] | 7.00 to 8.00 |
| Nc1ncccc1C(=O)N[C@@H]1CCN(C(=O)c2ccc(-c3ccc(F)cc3Cl)cc2)C1 [Example 579, (R)-2-amino-N-(1-(2′-chloro-4′-fluoro-[1,1′-biphenyl]-4-carbonyl)pyrrolidin-3-yl)nicotinamide] | 7.00 to 8.00 |
| Nc1ncc(-c2ccc(C(=O)NCCCN3CCCC3=O)cc2)cc1C(=O)N[C@@H]1CCN(C(=O)c2ccc(-c3ccccc3Cl)cc2)C1 [Example 595, (R)-2-amino-N-(1-(2′-chloro-[1,1′-biphenyl]-4-carbonyl)pyrrolidin-3-yl)-5-(4-((3-(2-oxopyrrolidin-1-yl)propyl)carbamoyl)phenyl)nicotinamide] | 7.00 to 8.00 |
| Cc1ccc(-c2ccc(C(=O)N3CC[C@@H](Nc4n[nH]c5ncc(-c6cnn(C)c6)cc45)C3)cc2)s1 [Example 615, (R)-(3-((5-(1-methyl-1H-pyrazol-4-yl)-1H-pyrazolo[3,4-b]pyridin-3-yl)amino)pyrrolidin-1-yl)(4-(5-methylthiophen-2-yl)phenyl)methanone] | 7.00 to 8.00 |
| Cn1cc(-c2cnc3[nH]nc(N[C@@H]4CCN(C(=O)c5ccc(-c6ccccc6)cc5)C4)c3c2)cn1 [Example 616, (R)-[1,1′-biphenyl]-4-yl(3-((5-(1-methyl-1H-pyrazol-4-yl)-1H-pyrazolo[3,4-b]pyridin-3-yl)amino)pyrrolidin-1-yl)methanone] | 6.00 to 7.00 |
| Cn1cc(-c2cnc3[nH]nc(N[C@@H]4CCN(C(=O)c5ccc(-c6ccccc6Cl)cc5)C4)c3c2)cn1 [Example 617, (R)-(2′-chloro-[1,1′-biphenyl]-4-yl)(3-((5-(1-methyl-1H-pyrazol-4-yl)-1H-pyrazolo[3,4-b]pyridin-3-yl)amino)pyrrolidin-1-yl)methanone] | 7.00 to 8.00 |
| Cn1cc(-c2cnc3[nH]nc(N[C@@H]4CCN(C(=O)c5ccc(-c6ccc(Oc7ccc(N)cc7)cc6)cc5)C4)c3c2)cn1 [Example 620, (R)-(4′-(4-aminophenoxy)-[1,1′-biphenyl]-4-yl)(3-((5-(1-methyl-1H-pyrazol-4-yl)-1H-pyrazolo[3,4-b]pyridin-3-yl)amino)pyrrolidin-1-yl)methanone] | 6.00 to 7.00 |
| CN1CCN(Cc2cccc(N3CC[C@H](OC(=O)N4CC[C@@H](NC(=O)c5cc(-c6cnn(C)c6)cnc5N)C4)C3)c2)CC1 [Example 626, (S)-1-(3-((4-methylpiperazin-1-yl)methyl)phenyl)pyrrolidin-3-yl (R)-3-(2-amino-5-(1-methyl-1H-pyrazol-4-yl)nicotinamido)pyrrolidine-1-carboxylate] | < 6.00 |
| CN1CCN(Cc2ccc(-c3cc(CN4CC[C@@H](NC(=O)c5cc(-c6cnn(C)c6)cnc5N)C4)ccc3F)cc2)CC1 [Example 633, (R)-2-amino-N-(1-((6-fluoro-4′-((4-methylpiperazin-1-yl)methyl)-[1,1′-biphenyl]-3-yl)methyl)pyrrolidin-3-yl)-5-(1-methyl-1H-pyrazol-4-yl)nicotinamide] | 6.00 to 7.00 |
| Cn1cc(-c2cnc(N)c(C(=O)N[C@@H]3CCN(C(=O)c4ccc(-c5ccc(S(=O)(=O)N6CCC6)cc5)cc4)C3)c2)cn1 [Example 660, (R)-2-amino-N-(1-(4′-(azetidin-1-ylsulfonyl)-[1,1′-biphenyl]-4-carbonyl)pyrrolidin-3-yl)-5-(1-methyl-1H-pyrazol-4-yl)nicotinamide] | 6.00 to 7.00 |
| CSc1ccc(-c2ccc(C(=O)N3CC[C@@H](NC(=O)c4cc(-c5cnn(C)c5)cnc4N)C3)cc2)cc1 [Example 665, (R)-2-amino-5-(1-methyl-1H-pyrazol-4-yl)-N-(1-(4′-(methylthio)-[1,1′-biphenyl]-4-carbonyl)pyrrolidin-3-yl)nicotinamide] | 6.00 to 7.00 |
| CCSc1ccc(-c2ccc(C(=O)N3CC[C@@H](NC(=O)c4cc(-c5cnn(C)c5)cnc4N)C3)cc2)cc1 [Example 666, (R)-2-amino-N-(1-(4′-(ethylthio)-[1,1′-biphenyl]-4-carbonyl)pyrrolidin-3-yl)-5-(1-methyl-1H-pyrazol-4-yl)nicotinamide] | 6.00 to 7.00 |
| Cn1cc(-c2cnc(N)c(C(=O)NC3CN(C(=O)c4cccc(-c5ccccc5)c4)C3)c2)cn1 [Example 670, N-(1-([1,1′-biphenyl]-3-carbonyl)azetidin-3-yl)-2-amino-5-(1-methyl-1H-pyrazol-4-yl)nicotinamide] | < 6.00 |
| Cn1cc(-c2cnc(N)c(C(=O)NC3(CO)CCN(C(=O)c4ccc(-c5ccccc5)cc4)C3)c2)cn1 (centres unmarked) [Example 671, N-(1-([1,1′-biphenyl]-4-carbonyl)-3-(hydroxymethyl)pyrrolidin-3-yl)-2-amino-5-(1-methyl-1H-pyrazol-4-yl)nicotinamide] | 7.00 to 8.00 |
| Cn1cc(-c2cnc(N)c(C(=O)NC3(CO)CCN(C(=O)c4cccc(-c5ccccc5)c4)C3)c2)cn1 (centres unmarked) [Example 672, N-(1-([1,1′-biphenyl]-3-carbonyl)-3-(hydroxymethyl)pyrrolidin-3-yl)-2-amino-5-(1-methyl-1H-pyrazol-4-yl)nicotinamide] | < 6.00 |
| Cn1cc(-c2cnc(N)c(C(=O)N[C@@H]3CCN(C(=O)c4ccc(-c5ccc(/C=C/C(=O)O)cc5)cc4)C3)c2)cn1 [Example 677, (R,E)-3-(4′-(3-(2-amino-5-(1-methyl-1H-pyrazol-4-yl)nicotinamido)pyrrolidine-1-carbonyl)-[1,1′-biphenyl]-4-yl) acrylic acid] | 7.00 to 8.00 |
| Cn1cc(-c2cnc(N)c(C(=O)N[C@@H]3CCN(C(=O)c4ccc(-c5ccc(CCC(=O)O)cc5)cc4)C3)c2)cn1 [Example 678, (R)-3-(4′-(3-(2-amino-5-(1-methyl-1H-pyrazol-4-yl)nicotinamido)pyrrolidine-1-carbonyl)-[1,1′-biphenyl]-4-yl) propanoic acid] | 6.00 to 7.00 |
